Test results: publication PMC8486872, “A rational blueprint for the design of chemically-controlled protein switches” (Nature Communications, 2021)
Several values for one entry are separate records, joined by “and”; a condition that tells them apart may be missing. Identical values can stand only once.

Key:
[1] = test system: SEAP expression in HEK293T cells; assay: MISO designer cells (CDH-1 + CDH-3 dual switches); assay type: cell-based; parameters: SEAP / Bottom (best-fit value) / Top (best-fit value) / Span (best-fit value): unit not given here; conditions: for logIC50 (best-fit value): drug in nM; for SEAP, Drug-1 turn OFF CDH-1-TF: Fig S13f; for SEAP, Drug-1 turn OFF CDH-1-GEMS: Fig S13g, representative data
Source text: Fig. 5 Orthogonal chemical switches enable implementation of multi-input multi-output control modes in mammalian cells. a Scheme of multi-inputs multi-outputs (MIMO) designer cells where two drugs control two different outputs. b, c Cells were co-transfected with AIR-1/2-GEMS and CDH-3-TF regulate SEAP and Luciferase expression, respectively. […] AIR-1/2-GEMS coupled with SEAP expression circuits were co-transfected with CDH-1/2-TF circuits which control the Luciferase production. Respective drug concentrations ranged from 0.001 nM to 1 µM. […]
We then engineered MISO cells (Fig. 5d) with CDH-1-TF and CDH-3-TF dual switches (Fig. 5e) that encode OFF behaviors controlled by Drug-1 and Drug-3. […] This output behavior is distinct from the typical SISO systems which only show two persistent states (high, low) (Fig. 2c, f). […] This type of output in biological systems could be utilized to produce graded levels of responses that are robust to minor oscillations in drug concentrations, and could be used to dissect fundamental biological processes but also to provide persistent response levels in translational applications.
1-TF and CDH-3-TF circuits. Drug-1 concentrations ranged from 0.001 nM to 1 µM (left) and 1 µM Drug-1 with serial diluted Drug-3 from 0.001 nM to 1 µM (right). g) Quantification of SEAP activity controlled […]
by CDH-1-GEMS and CDH-3-GEMS circuits. […]
Luciferase production (l). b-k) Each data point represents the mean of n = 3 biological replicates, and the dose-dependent curve were fitted using four-parameter nonlinear regression.

[2] = test system: SEAP and Luciferase expression in HEK293T cells; assay: SIMO designer cells (AIR-1/2-GEMS + CDH-1/2-TF); assay type: cell-based; conditions: for SEAP: Fig5h, turn ON via AIR-1-GEMS
Source text: Fig. 5 Orthogonal chemical switches enable implementation of multi-input multi-output control modes in mammalian cells. a Scheme of multi-inputs multi-outputs (MIMO) designer cells where two drugs control two different outputs. b, c Cells were co-transfected with AIR-1/2-GEMS and CDH-3-TF regulate SEAP and Luciferase expression, respectively. […] AIR-1/2-GEMS coupled with SEAP expression circuits were co-transfected with CDH-1/2-TF circuits which control the Luciferase production. Respective drug concentrations ranged from 0.001 nM to 1 µM. All values presented are mean ± s.d. of three replicates and curves were fitted by four-parameters nonlinear regression. b, c, e, f, h, i Source data are available in the source data file.
Finally, we engineered SIMO cells (Fig. 5g) using two designed switches that produce ON and OFF responses upon exposure to the same drug. We transfected cells with combinations of AIR-GEMS and CDH-TFs which controlled the expression of the reporter proteins SEAP and Luciferase, respectively. […] Therefore, computational design expanded the repertoire of protein switches controlled by the same compounds that can be used to simultaneous turn ON and OFF synergistic outputs. […]
AIR-1-GEMS coupled with SEAP expression circuits (i) and CDH-1-TF circuits which control the Luciferase production (j). j-k) Quantification of SEAP and Luciferase activities under Drug-2. AIR-2-GEMS coupled with SEAP expression circuits (k) and CDH-2-TF circuits which control the Luciferase production (l). b-k) Each data point represents the mean of n = 3 biological replicates, and the dose-dependent curve were fitted using four-parameter nonlinear regression.

[3] = Fig5e SEAP, CDH-1-TF, + 1 µM Drug-3, four-parameter fit
[4] = Fig5f SEAP, CDH-1-GEMS, + 1 µM Drug-3, three-parameter fit

CN(C)CC#Cc1ccc(OCCCc2sc(N3CCc4cccc(C(=O)Nc5nc6ccccc6s5)c4C3)nc2C(=O)O)c(F)c1 [Drug-1, A-1155463]
Bottom (best-fit value) [1, 3]: 10.05 | HillSlope (best-fit value) [1, 3]: -1.155 | Span (best-fit value) [1, 3]: 11.2 | Top (best-fit value) [1, 3]: 21.26 | logIC50 (best-fit value) [1, 3]: 0.9359 | SEAP ([1]; Fig5e, turn OFF CDH-1-TF, 0.001 nM + 1 µM Drug-3): 16.8327 and 22.6453 and 20.005 | SEAP ([1]; Fig5e, turn OFF CDH-1-TF, 0.01 nM + 1 µM Drug-3): 20.9002 and 22.3965 and 21.4625 | SEAP ([1]; Fig5e, turn OFF CDH-1-TF, 0.1 nM + 1 µM Drug-3): 21.6157 and 22.7521 and 21.3586 | SEAP ([1]; Fig5e, turn OFF CDH-1-TF, 1 nM + 1 µM Drug-3): 21.4038 and 20.3272 and 21.0988 | SEAP ([1]; Fig5e, turn OFF CDH-1-TF, 10 nM + 1 µM Drug-3): 13.4848 and 15.392 and 15.5387 | SEAP ([1]; Fig5e, turn OFF CDH-1-TF, 100 nM + 1 µM Drug-3): 11.183 and 12.1962 and 11.7139 | SEAP ([1]; Fig5e, turn OFF CDH-1-TF, 1000 nM + 1 µM Drug-3): 9.72 and 8.497 and 9.661 | Bottom (best-fit value) [1, 4]: 12.41 | Span (best-fit value) [1, 4]: 42.02 | Top (best-fit value) [1, 4]: 54.44 | logIC50 (best-fit value) [1, 4]: 0.8832 | SEAP ([1]; Fig5f, turn OFF CDH-1-GEMS, 0.001 nM + 1 µM Drug-3): 55.6364 and 50.5517 and 48.8723 | SEAP ([1]; Fig5f, turn OFF CDH-1-GEMS, 0.01 nM + 1 µM Drug-3): 61.2598 and 59.0443 and 45.7788 | SEAP ([1]; Fig5f, turn OFF CDH-1-GEMS, 0.1 nM + 1 µM Drug-3): 46.4102 and 62.6516 and 50.3302 | SEAP ([1]; Fig5f, turn OFF CDH-1-GEMS, 1 nM + 1 µM Drug-3): 57.5516 and 40.155 and 62.0361 | SEAP ([1]; Fig5f, turn OFF CDH-1-GEMS, 10 nM + 1 µM Drug-3): 22.2271 and 39.6828 and 23.9896 | SEAP ([1]; Fig5f, turn OFF CDH-1-GEMS, 100 nM + 1 µM Drug-3): 14.7907 and 24.2066 and 13.0137 | SEAP ([1]; Fig5f, turn OFF CDH-1-GEMS, 1000 nM + 1 µM Drug-3): 8.999 and 11.1728 and 14.7089 | SEAP, Drug-1 turn OFF CDH-1-TF ([1]; Drug-1 0.001 nM): 37.8605 U/L and 37.6407 U/L and 37.2767 U/L | SEAP, Drug-1 turn OFF CDH-1-TF ([1]; Drug-1 0.01 nM): 46.3191 U/L and 36.6964 U/L and 37.3836 U/L | SEAP, Drug-1 turn OFF CDH-1-TF ([1]; Drug-1 0.1 nM): 40.0956 U/L and 39.4221 U/L and 42.0031 U/L | SEAP, Drug-1 turn OFF CDH-1-TF ([1]; Drug-1 1 nM): 42.0045 U/L and 40.1385 U/L and 32.8382 U/L | SEAP, Drug-1 turn OFF CDH-1-TF ([1]; Drug-1 10 nM): 31.0901 U/L and 30.8325 U/L and 26.6542 U/L | SEAP, Drug-1 turn OFF CDH-1-TF ([1]; Drug-1 100 nM): 22.4541 U/L and 19.9215 U/L and 18.0282 U/L | SEAP, Drug-1 turn OFF CDH-1-TF ([1]; Drug-1 1000 nM): 23.3552 U/L and 18.7039 U/L and 14.93 U/L | SEAP, Drug-1 turn OFF CDH-1-GEMS ([1]; Drug-1 0.001 nM): 63.1346 U/L and 76.9207 U/L and 59.8899 U/L | SEAP, Drug-1 turn OFF CDH-1-GEMS ([1]; Drug-1 0.01 nM): 62.4115 U/L and 58.8113 U/L and 53.5466 U/L | SEAP, Drug-1 turn OFF CDH-1-GEMS ([1]; Drug-1 0.1 nM): 64.3309 U/L and 62.8524 U/L and 59.3961 U/L | SEAP, Drug-1 turn OFF CDH-1-GEMS ([1]; Drug-1 1 nM): 47.8019 U/L and 47.3132 U/L and 39.8687 U/L | SEAP, Drug-1 turn OFF CDH-1-GEMS ([1]; Drug-1 10 nM): 42.6016 U/L and 46.6627 U/L and 42.2581 U/L | SEAP, Drug-1 turn OFF CDH-1-GEMS ([1]; Drug-1 100 nM): 43.3282 U/L and 43.4567 U/L and 33.8379 U/L | SEAP, Drug-1 turn OFF CDH-1-GEMS ([1]; Drug-1 1000 nM): 36.4444 U/L and 23.5312 U/L and 44.7329 U/L | SEAP and Luciferase outputs in SIMO cells ([2]; 0.001 nM to 1 µM): simultaneously activated SEAP production and suppressed the expression of Luciferase | SEAP ([2]; 0.001 nM): 19.8743 U/L and 19.5134 U/L and 15.1383 U/L | SEAP ([2]; 0.005 nM): 19.2907 U/L and 17.6338 U/L and 18.8337 U/L | SEAP ([2]; 0.01 nM): 18.6271 U/L and 21.8407 U/L and 37.1349 U/L | SEAP ([2]; 0.05 nM): 37.9776 U/L and 52.7802 U/L and 54.2278 U/L | SEAP ([2]; 0.1 nM): 39.7647 U/L and 50.8999 U/L and 76.4896 U/L | SEAP ([2]; 0.5 nM): 46.7816 U/L and 46.7958 U/L and 68.9342 U/L | SEAP ([2]; 1 nM): 36.1123 U/L and 44.1109 U/L and 47.7004 U/L | SEAP ([2]; 5 nM): 163.102 U/L and 218.766 U/L and 249.722 U/L | SEAP ([2]; 10 nM): 315.129 U/L and 324.74 U/L and 353.471 U/L | SEAP ([2]; 50 nM): 364.997 U/L and 306.053 U/L and 339.025 U/L | SEAP ([2]; 100 nM): 443.801 U/L and 453.931 U/L and 405.497 U/L
